This is an account of results in US9796700B2 (Celgene CAR LLC, priority 2013, dated 2017).

One assay deals with Erk1 (Homo sapiens (Human), UniProt P27361). The experiment in a line: Protein Mass Modification Assay (intact protein MALDI). The format is binding. Summed up: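 Percent covalent modification comes from the intact-protein MALDI centroid mass shift, treated versus control, divided by compound MW. Before analysis, human Erk1 was exposed to compound at 10-fold excess over protein for 60 min at room temperature.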
Sequence of Erk1 (P27361 whole entry, looked up): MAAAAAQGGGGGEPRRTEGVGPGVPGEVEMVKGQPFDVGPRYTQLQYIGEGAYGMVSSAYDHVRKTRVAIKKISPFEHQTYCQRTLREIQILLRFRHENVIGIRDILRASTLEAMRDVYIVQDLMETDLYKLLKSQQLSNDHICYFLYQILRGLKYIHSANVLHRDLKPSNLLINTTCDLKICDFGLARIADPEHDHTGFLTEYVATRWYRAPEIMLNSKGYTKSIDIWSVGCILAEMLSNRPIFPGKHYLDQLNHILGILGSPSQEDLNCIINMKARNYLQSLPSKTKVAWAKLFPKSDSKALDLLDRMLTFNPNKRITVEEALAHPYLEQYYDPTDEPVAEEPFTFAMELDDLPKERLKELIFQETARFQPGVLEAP

The target in the next assay is MEK1 activated ERK1 (Homo sapiens (Human), UniProt P27361). Nature of the assay: Omnia continuous-read kinase assay for potency against MEK1 activated ERK1. The format is biochemical. The note with it: MEK1 activated ERK1, WT, ATP at KM. An outline of the steps: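 Apparent IC50 came from initial reaction slopes (RFU vs time) plotted against log inhibitor with a variable-slope fit. Reactions were started with ERK1 (4 nM final) added to 50 μM ATP, roughly at its appKM, and 10 μM Sox-conjugated ST17 peptide in 20 mM Tris pH 7.5, 5 mM MgCl2. Fluorescence was monitored every 71 seconds.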
Sequence of MEK1 activated ERK1 (P27361 whole entry): as the sequence (P27361 whole entry, looked up) above

On to `C=CC(=O)Nc1ccccc1Nc1nc(N[C@H]2CCCN(C(=O)CCCC(=O)NCCCOCCOCCOCCCNC(=O)CCCC[C@@H]3SC[C@@H]4NC(=O)N[C@@H]43)C2)ncc1Cl` [Compound I-303, 5-((S)-3-((4-((2-acrylamidophenyl)amino)-5-chloropyrimidin-2-yl)amino)piperidin-1-yl)-5-oxo-N-(15-oxo-19-((3aS,4S,6aR)-2-oxohexahydro-1H-thieno[3,4-d]imidazol-4-yl)-4,7,10-trioxa-14-azanonadecyl)pentanamide], for which the “ERK1 Mass Mod (%)” value at Erk1 was “E (provided a mass modification of ≧70%)”. In addition, at MEK1 activated ERK1, the IC50 is over 1 µM.
`NC(=O)c1ccccc1Nc1nc(N[C@H]2CCCN(C(=O)CO)C2)ncc1C(F)(F)F` [Compound I-307, (S)-2-((2-((1-(2-hydroxyacetyl)piperidin-3-yl)amino)-5-(trifluoromethyl)pyrimidin-4-yl)amino)benzamide]: the “ERK1 Mass Mod (%)” value on Erk1 is listed as “G (proived a mass modification ≦30%)”. Moreover, the IC50 on MEK1 activated ERK1 was under 0.1 µM.
The matching figures for `CC(=O)N1CCC[C@H](Nc2ncc(C(F)(F)F)c(N[C@@H]3[C@H](C(N)=O)[C@H]4C=C[C@@H]3C4)n2)C1` [Compound I-309, (1R,2R,3S,4S)-3-((2-(((S)-1-acetylpiperidin-3-yl)amino)-5-(trifluoromethyl)pyrimidin-4-yl)amino)bicyclo[2.2.1]hept-5-ene-2-carboxamide]: “G (proived a mass modification ≦30%)” and over 1 µM.
Taken in the same sequence, the figures for `CC(C)S(=O)(=O)c1ccccc1Nc1nc(N[C@H]2CCCN(C(=O)CO)C2)ncc1C(F)(F)F` [Compound I-310, (S)-2-hydroxy-1-(3-((4-((2-(isopropylsulfonyl)phenyl)amino)-5-(trifluoromethyl)pyrimidin-2-yl)amino)piperidin-1-yl)ethanone] were “G (proived a mass modification ≦30%)” and under 0.1 µM.
The matching figures for `COc1cc(N2CCOCC2)ccc1Nc1ncc(N)c(Nc2ccccc2N)n1` [Compound I-312, N^4-(2-aminophenyl)-N^2-(2-methoxy-4-morpholinophenyl)pyrimidine-2,4,5-triamine]: “G (proived a mass modification ≦30%)” and over 1 µM.
Consider `CCC(=O)Nc1ccccc1Nc1nc(Nc2ccc3c(c2)CCCC(=O)N3CCCN)ncc1Cl` [Compound I-314, N-(2-((2-((1-(3-aminopropyl)-2-oxo-2,3,4,5-tetrahydro-1H-benzo[b]azepin-7-yl)amino)-5-chloropyrimidin-4-yl)amino)phenyl)propionamide], for which the “ERK1 Mass Mod (%)” value on Erk1 is “G (proived a mass modification ≦30%)”. The IC50 on MEK1 activated ERK1 was under 0.1 µM.
Taken in the same sequence, the figures for `CCC(=O)Nc1ccccc1Nc1nc(Nc2ccc3c(c2OC)CCCC(=O)N3CC)ncc1Cl` [Compound I-315, N-(2-((5-chloro-2-((1-ethyl-6-methoxy-2-oxo-2,3,4,5-tetrahydro-1H-benzo[b]azepin-7-yl)amino)pyrimidin-4-yl)amino)phenyl)propionamide] were “G (proived a mass modification ≦30%)” and over 1 µM.
The matching figures for `CCC(=O)Nc1ccccc1Nc1nc(N[C@H]2CCCN(C(C)=O)C2)ncc1C(F)(F)F` [Compound I-317, (S)—N-(2-((2-((1-acetylpiperidin-3-yl)amino)-5-(trifluoromethyl)pyrimidin-4-yl)amino)phenyl)propionamide]: “G (proived a mass modification ≦30%)” and under 0.1 µM.
Taken in the same sequence, the figures for `CCC(=O)Nc1ccccc1Nc1nc(N[C@H]2CCCN(C(=O)CO)C2)ncc1C(F)(F)F` [Compound I-318, (S)—N-(2-((2-((1-(2-hydroxyacetyl)piperidin-3-yl)amino)-5-(trifluoromethyl)pyrimidin-4-yl)amino)phenyl)propionamide] were “G (proived a mass modification ≦30%)” and under 0.1 µM.

A word on the IC50: it is the point on the concentration scale where inhibition reaches its midpoint.
